Laboratory results reported in patent US20070128217A1 (priority 2003, published 2007).

Legend:
[1] = system: antibodies in sera from SARS patients (sera 1a, 1b, 2, 6, 37, 62, London, SARS-yellow, SARS-green); assay type: binding, human; set-up: Binding of serum 6 to linear peptides of protein X1 of SARS-CoV Urbani / Binding of serum 37 to linear peptides of protein X1 of SARS-CoV Urbani / Binding of serum 6 to looped/cyclic peptide (PEPSCAN-ELISA) / Binding of serum 37 to looped/cyclic peptide (PEPSCAN-ELISA) / Binding of serum 37 to looped/cyclic peptides of protein X1 of SARS-CoV Urbani / Binding of serum 6 to linear peptides of protein X2 / Binding of serum 37 to linear peptides of protein X2 / Binding of serum 37 to looped/cyclic peptides of protein X2 of SARS-CoV Urbani / Binding of serum 6 to linear peptides of protein M of SARS-CoV Urbani / Binding of serum 37 to linear peptides of protein M of SARS-CoV Urbani / Binding of serum 6 to looped/cyclic peptides of protein M of SARS-CoV Urbani / Binding of serum 37 to looped/cyclic peptides of protein M of SARS-CoV Urbani / Binding of serum 6 to linear peptides of protein X3 of SARS-CoV Urbani / Binding of serum 37 to linear peptides of protein X3 of SARS-CoV Urbani / Binding of serum 37 to looped/cyclic peptides of protein X3 of SARS-CoV Urbani / Binding of serum 6 to linear peptides of protein X4 of SARS-CoV Urbani / Binding of serum 37 to linear peptides of protein X4 of SARS-CoV Urbani / Binding of serum 37 to looped/cyclic peptides of protein X4 of SARS-CoV Urbani / Binding of serum 6 to linear peptides of protein X5 of SARS-CoV Urbani / Binding of serum 37 to linear peptides of protein X5 of SARS-CoV Urbani / Binding of serum 37 to looped/cyclic peptides of protein X5 of SARS-CoV Urbani / Binding of serum 6 to linear peptides of protein N of SARS-CoV Urbani / Binding of serum 37 to linear peptides of protein N of SARS-CoV Urbani / Binding of serum 6 to linear peptide (PEPSCAN-ELISA) / Binding of serum 1a to looped/cyclic peptides of protein N of SARS-CoV Urbani / Binding of serum 1b to looped/cyclic peptides of protein N of SARS-CoV Urbani / Binding of serum 2 to looped/cyclic peptides of protein N of SARS-CoV Urbani / Binding of serum 6 to looped/cyclic peptides of protein N of SARS-CoV Urbani / Binding of serum 37 to looped/cyclic peptides of protein N of SARS-CoV Urbani / Binding of serum 62 to looped/cyclic peptides of protein N of SARS-CoV Urbani / Binding of serum London to looped/cyclic peptides of protein N of SARS-CoV Urbani / Binding of serum SARS-green to looped/cyclic peptides of protein N of SARS-CoV Urbani: unit not given here
[2] = system: control sera (pooled serum of ten healthy LUMC hospital workers; commercial negative donor pooled serum from the Dutch bloodbank); assay type: binding, human; set-up: Binding of Control serum LUMC to linear peptides / Binding of Control serum Blood-bank to linear peptides / Binding of Control serum LUMC to looped peptides / Binding of Control Serum Blood-Bank to Looped peptides / Binding of Control serum LUMC to linear peptides of the protein M of SARS-CoV Urbani / Binding of Control serum Blood-bank to linear peptides of the protein M of SARS-CoV Urbani / Binding of Control serum LUMC to looped peptides of the protein M of SARS-CoV Urbani / Binding of Control Serum Blood-Bank to Looped peptides of the protein M of SARS-CoV Urbani: unit not given here
[3] = system: rabbit serum obtained by immunizing a rabbit with the SARS-CoV strain Frankfurt 1; assay type: binding; set-up: Binding of a rabbit serum to linear peptides / Binding of a rabbit serum to looped peptides / Rabbit serum linear peptides / Rabbit serum looped peptides / Binding of a rabbit serum to linear peptides of protein N of SARS-CoV Urbani (Rabbit serum linear peptides) / Binding of a rabbit serum to looped/cyclic peptides of protein N of SARS-CoV Urbani (Rabbit serum looped peptides): unit not given here

## LCWKCKSKNPLLYDA
[1]
  Binding of serum 1a to looped/cyclic peptide (PEPSCAN-ELISA): 0.8
  Binding of serum 1b to looped/cyclic peptide (PEPSCAN-ELISA): 0.5
  Binding of serum 2 to looped/cyclic peptide (PEPSCAN-ELISA): 0.7
  Binding of serum 6 to looped/cyclic peptide (PEPSCAN-ELISA): 0.8
  Binding of serum 37 to looped/cyclic peptide (PEPSCAN-ELISA): 0.7
  Binding of serum 62 to looped/cyclic peptide (PEPSCAN-ELISA): 0.8
  Binding of serum London to looped/cyclic peptide (PEPSCAN-ELISA): 0.3
  Binding of serum SARS-green to looped/cyclic peptide (PEPSCAN-ELISA): 0.3
  Binding of serum SARS-yellow to looped/cyclic peptide (PEPSCAN-ELISA): 0.7
  Recognition of the peptide by sera of SARS-CoV infected individuals, and form (linear, looped/cyclic) in which it is recognized: recognized in linear form
[2]
  Binding of Control Serum Blood-Bank to Looped peptides: 0.8
  Binding of Control serum Blood-bank to linear peptides: 0.7
  Binding of Control serum LUMC to linear peptides: 0.7
  Binding of Control serum LUMC to looped peptides: 0.8
[3]
  Binding of a rabbit serum to linear peptides: 0.3
  Binding of a rabbit serum to looped peptides: 0.8

## LDVIISSIVRQLFKP
[1]
  Binding of serum 1a to linear peptides of protein X3 of SARS-CoV Urbani: 0.8
  Binding of serum 1a to looped/cyclic peptides of protein X3 of SARS-CoV Urbani: 0.6
  Binding of serum 1b to linear peptides of protein X3 of SARS-CoV Urbani: 0.3
  Binding of serum 1b to looped/cyclic peptides of protein X3 of SARS-CoV Urbani: 0.3
  Binding of serum 2 to linear peptides of protein X3 of SARS-CoV Urbani: 0.9
  Binding of serum 2 to looped/cyclic peptides of protein X3 of SARS-CoV Urbani: 0.5
  Binding of serum 6 to linear peptides of protein X3 of SARS-CoV Urbani: 0.3
  Binding of serum 6 to looped/cyclic peptides of protein X3 of SARS-CoV Urbani: 0.4
  Binding of serum 37 to linear peptides of protein X3 of SARS-CoV Urbani: 0.7
  Binding of serum 37 to looped/cyclic peptides of protein X3 of SARS-CoV Urbani: 0.5
  Binding of serum 62 to linear peptides of protein X3 of SARS-CoV Urbani: 0.6
  Binding of serum 62 to looped/cyclic peptides of protein X3 of SARS-CoV Urbani: 0.5
  Binding of serum London to linear peptides of protein X3 of SARS-CoV Urbani: 0.5
  Binding of serum London to looped/cyclic peptides of protein X3 of SARS-CoV Urbani: 0.2
  Binding of serum SARS-green to linear peptides of protein X3 of SARS-CoV Urbani: 0.4
  Binding of serum SARS-green to looped/cyclic peptides of protein X3 of SARS-CoV Urbani: 0.2
  Binding of serum SARS-yellow to linear peptides of protein X3 of SARS-CoV Urbani: 0.1
  Binding of serum SARS-yellow to looped/cyclic peptides of protein X3 of SARS-CoV Urbani: 0.3
[2]
  Binding of Control Serum Blood-Bank to Looped peptides of the protein X3 of SARS-CoV Urbani: 0.7
  Binding of Control serum Blood-bank to linear peptides of the protein X3 of SARS-CoV Urbani: 0.6
  Binding of Control serum LUMC to linear peptides of the protein X3 of SARS-CoV Urbani: 0.4
  Binding of Control serum LUMC to looped peptides of the protein X3 of SARS-CoV Urbani: 0.8
[3]
  Rabbit serum linear peptides: 0.2
  Rabbit serum looped peptides: 0.0

## LEQWNLVIGFLFLAW
[1]
  Binding of serum 1a to linear peptides of protein M of SARS-CoV Urbani: 0.6
  Binding of serum 1a to looped/cyclic peptides of protein M of SARS-CoV Urbani: 0.6
  Binding of serum 1b to linear peptides of protein M of SARS-CoV Urbani: 0.4
  Binding of serum 1b to looped/cyclic peptides of protein M of SARS-CoV Urbani: 0.3
  Binding of serum 2 to linear peptides of protein M of SARS-CoV Urbani: 0.6
  Binding of serum 2 to looped/cyclic peptides of protein M of SARS-CoV Urbani: 0.7
  Binding of serum 6 to linear peptides of protein M of SARS-CoV Urbani: 0.5
  Binding of serum 6 to looped/cyclic peptides of protein M of SARS-CoV Urbani: 0.5
  Binding of serum 37 to linear peptides of protein M of SARS-CoV Urbani: 0.6
  Binding of serum 37 to looped/cyclic peptides of protein M of SARS-CoV Urbani: 0.7
  Binding of serum 62 to linear peptides of protein M of SARS-CoV Urbani: 0.7
  Binding of serum 62 to looped/cyclic peptides of protein M of SARS-CoV Urbani: 0.6
  Binding of serum London to linear peptides of protein M of SARS-CoV Urbani: 0.4
  Binding of serum London to looped/cyclic peptides of protein M of SARS-CoV Urbani: 0.2
  Binding of serum SARS-green to linear peptides of protein M of SARS-CoV Urbani: 0.3
  Binding of serum SARS-green to looped/cyclic peptides of protein M of SARS-CoV Urbani: 0.3
  Binding of serum SARS-yellow to linear peptides of protein M of SARS-CoV Urbani: 0.1
  Binding of serum SARS-yellow to looped/cyclic peptides of protein M of SARS-CoV Urbani: 0.6
[2]
  Binding of Control Serum Blood-Bank to Looped peptides of the protein M of SARS-CoV Urbani: 0.6
  Binding of Control serum Blood-bank to linear peptides of the protein M of SARS-CoV Urbani: 0.6
  Binding of Control serum LUMC to linear peptides of the protein M of SARS-CoV Urbani: 0.3
  Binding of Control serum LUMC to looped peptides of the protein M of SARS-CoV Urbani: 0.5
[3]
  Rabbit serum linear peptides: 0.2
  Rabbit serum looped peptides: 0.4
